Experimental data reported in PMC9551036, “A selective and orally bioavailable VHL-recruiting PROTAC achieves SMARCA2 degradation in vivo” (Nature Communications, 2022).
Where “and” joins values, the source holds several entries; their conditions need not be identical. Equal entries are not always repeated. Where two headings read alike, the source gives them in different places.

Experiments:
[1] = target: T1, (Homo sapiens, UniProt P51532); assay: TR-FRET ternary complex affinity and cooperativity, SMARCA4; format: binding
T1 construct: P51532, residues 1448–1569 with additional N-terminal SM residues; GST (TEV site) (N); His6 (TEV site) (N, cleaved yes); made in house; host or cells: SMARCA4^BD: Escherichia coli BL21(DE3)
T1 sequence (P51532 1448-1569): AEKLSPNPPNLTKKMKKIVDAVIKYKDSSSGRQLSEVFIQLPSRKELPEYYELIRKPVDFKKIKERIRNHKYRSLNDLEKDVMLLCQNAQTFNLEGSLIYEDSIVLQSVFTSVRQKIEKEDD

[2] = target: T2, PBRM1 BD (Homo sapiens, UniProt Q86U86); assay: TR-FRET binary and ternary (PROTAC + VCB) affinity, PBRM1 bromodomain; format: binding; conditions: individual replicates
T2 construct: GST (TEV site) (N); made in house; host or cells: Escherichia coli BL21(DE3)

[3] = target: VCB: PROTAC: SMARCA2^BD ternary complex (Homo sapiens, UniProt P40337+P51531); assay: TR-FRET ternary complex affinity and cooperativity, SMARCA2; format: binding; design: P51531-2, residues 1373-1493 with additional N-terminal SM residues; GST (TEV site) (N); His6 (TEV site) (N, cleaved yes); made in house; host or cells: SMARCA2^BD: Escherichia coli BL21(DE3)
Chain of VCB: PROTAC: SMARCA2^BD ternary complex (Homo sapiens, UniProt P40337+P51531) (P51531 with tags, fused parts or gaps isoform P51531-2): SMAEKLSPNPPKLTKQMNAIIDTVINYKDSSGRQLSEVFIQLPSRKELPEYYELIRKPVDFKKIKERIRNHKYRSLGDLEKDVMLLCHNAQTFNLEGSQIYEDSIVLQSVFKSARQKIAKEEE
Chain of VCB: PROTAC: SMARCA2^BD ternary complex (Homo sapiens, UniProt P40337+P51531) (P40337 54-213): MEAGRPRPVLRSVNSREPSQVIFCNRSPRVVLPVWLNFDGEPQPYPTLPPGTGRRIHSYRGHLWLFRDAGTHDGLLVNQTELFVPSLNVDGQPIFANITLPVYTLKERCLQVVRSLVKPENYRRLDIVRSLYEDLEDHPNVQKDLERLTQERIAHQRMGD
Chain of VCB: PROTAC: SMARCA2^BD ternary complex (Homo sapiens, UniProt P40337+P51531) (Q15369 17-112 partner): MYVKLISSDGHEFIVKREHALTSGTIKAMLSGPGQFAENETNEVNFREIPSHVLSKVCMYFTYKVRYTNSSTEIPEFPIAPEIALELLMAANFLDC
Chain of VCB: PROTAC: SMARCA2^BD ternary complex (Homo sapiens, UniProt P40337+P51531) (Q15370 1-104 partner): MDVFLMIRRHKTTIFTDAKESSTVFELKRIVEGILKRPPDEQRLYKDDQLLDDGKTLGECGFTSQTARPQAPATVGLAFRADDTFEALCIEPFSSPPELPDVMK

[4] = target: T3, VCB: PROTAC: SMARCA2^BD ternary complex (Homo sapiens, UniProt P51531); assay: as above; format: binding
T3 construct: P51531-2, residues 1373-1493 with additional N-terminal SM residues; GST (TEV site) (N); His6 (TEV site) (N, cleaved yes); made in house; host or cells: SMARCA2^BD: Escherichia coli BL21(DE3)
T3 sequence (P51531 with tags, fused parts or gaps isoform P51531-2): as the sequence (P51531 with tags, fused parts or gaps isoform P51531-2) above

[5] = tested on: NCI-H1568 cells; assay: Cell viability assay (CellTiter Glo) in NCI-H1568; format: cell-based, human; conditions: for EC50: read-out: EC50 cell proliferation (CellTiter Glo); for IC50: CellTiter Glo, individual replicates, read-out: NCI-H1568 (18h) CTG
Experimental: 500–2000 cells were seeded in white, clear bottom 96-well plates (Corning or Perkin Elmer) in 180–200 µl medium per well. The next day, compounds were added using a digital dispenser and a T0 sample was measured for reference. […], and viability (luminescence) was measured using CellTiter Glo or CellTiter Glo 2.0 (Promega) according to manufacturer’s instructions after equilibrating cells and reagents at room temperature and 10–20 min incubation time while shaking.

[6] = target: SMARCA4 (Homo sapiens, UniProt P51532); assay: SMARCA4 capillary electrophoresis protein assay in RKO cells; format: cell-based; design: endogenous in cells; host or cells: RKO, HCT116, LU99, HCC-364, HCT-15, HCC4006, SK-N-AS; conditions: mean ± SD; for Dmax: RKO
Chain of SMARCA4 (P51532 whole entry): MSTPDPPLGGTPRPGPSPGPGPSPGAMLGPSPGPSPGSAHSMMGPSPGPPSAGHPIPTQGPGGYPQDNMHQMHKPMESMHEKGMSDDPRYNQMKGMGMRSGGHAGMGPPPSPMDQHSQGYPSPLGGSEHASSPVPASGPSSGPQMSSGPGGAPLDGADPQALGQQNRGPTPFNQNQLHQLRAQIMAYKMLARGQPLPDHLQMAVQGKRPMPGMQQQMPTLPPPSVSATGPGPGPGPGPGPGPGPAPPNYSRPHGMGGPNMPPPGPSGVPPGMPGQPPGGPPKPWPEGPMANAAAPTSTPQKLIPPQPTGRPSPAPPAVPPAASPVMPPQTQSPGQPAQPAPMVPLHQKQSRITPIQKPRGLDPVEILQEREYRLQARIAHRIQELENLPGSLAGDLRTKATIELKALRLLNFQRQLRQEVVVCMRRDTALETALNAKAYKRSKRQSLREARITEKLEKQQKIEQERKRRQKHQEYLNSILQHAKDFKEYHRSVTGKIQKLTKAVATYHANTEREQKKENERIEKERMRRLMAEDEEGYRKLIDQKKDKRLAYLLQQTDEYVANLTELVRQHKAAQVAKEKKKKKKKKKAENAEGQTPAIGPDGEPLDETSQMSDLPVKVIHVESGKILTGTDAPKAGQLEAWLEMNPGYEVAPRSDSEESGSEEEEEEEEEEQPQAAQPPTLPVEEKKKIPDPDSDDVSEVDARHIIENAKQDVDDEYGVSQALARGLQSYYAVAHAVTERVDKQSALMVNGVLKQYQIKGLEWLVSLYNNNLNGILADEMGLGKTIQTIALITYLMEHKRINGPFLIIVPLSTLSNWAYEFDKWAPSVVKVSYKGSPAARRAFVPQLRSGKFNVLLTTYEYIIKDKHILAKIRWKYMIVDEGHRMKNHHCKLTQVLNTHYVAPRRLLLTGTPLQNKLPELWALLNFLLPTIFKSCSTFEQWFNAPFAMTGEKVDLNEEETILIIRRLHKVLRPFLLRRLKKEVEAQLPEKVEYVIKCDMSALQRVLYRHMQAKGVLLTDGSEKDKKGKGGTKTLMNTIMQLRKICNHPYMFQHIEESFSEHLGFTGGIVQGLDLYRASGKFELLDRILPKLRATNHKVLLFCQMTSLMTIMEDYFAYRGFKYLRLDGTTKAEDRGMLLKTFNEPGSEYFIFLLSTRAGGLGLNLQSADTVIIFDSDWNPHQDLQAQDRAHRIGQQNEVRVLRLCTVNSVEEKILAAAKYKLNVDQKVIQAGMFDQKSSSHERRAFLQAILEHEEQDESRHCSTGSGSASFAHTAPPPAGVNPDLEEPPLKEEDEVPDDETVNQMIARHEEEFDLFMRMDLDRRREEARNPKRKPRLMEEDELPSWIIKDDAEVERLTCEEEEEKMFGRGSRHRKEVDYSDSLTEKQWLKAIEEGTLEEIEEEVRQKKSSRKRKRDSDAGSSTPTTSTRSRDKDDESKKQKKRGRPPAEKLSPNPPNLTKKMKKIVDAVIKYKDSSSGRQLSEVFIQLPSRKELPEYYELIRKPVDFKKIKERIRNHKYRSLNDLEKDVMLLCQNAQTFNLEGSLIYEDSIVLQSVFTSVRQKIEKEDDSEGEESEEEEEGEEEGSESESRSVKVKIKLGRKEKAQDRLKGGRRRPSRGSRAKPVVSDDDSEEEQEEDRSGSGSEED
Experimental: 130,000–200,000 cells were seeded in 24-well plates and incubated until settled down or overnight. Compounds were dissolved in DMSO and added to cells in indicated concentrations using a digital dispenser following an optional media change. Cells were incubated for 4 or 18 h as indicated. For SMARCA2/4 half-life determination, 150,000 or 200,000 cells were seeded in 24-well plates. The next day, 50 µg/ml cycloheximide (Sigma) was added and cells were incubated for 1–24 h. For SMARCA2/4 re-synthesis measurements, 200,000 cells were seeded in 24-well plates. The next day, 100 nM compound 6 was added for 4 h to degrade SMARCA2/4, and a sample was taken as baseline for normalisation. To allow re-synthesis, a VHL binder (compound 32, 25 or 50 µM) was then added for 3 or 24 h. Medium was removed, cells were washed with PBS and lysed with 80 µl Lysis Buffer (MSD Tris Lysis Buffer (#R60TX-2) + Halt Inhibitor Cocktail (100x) + Benzonase 0.5 µL/ml). Samples were frozen at −80 °C and thawed at room temperature before use. Samples were transferred to a V-bottom plate and insoluble debris was pelleted by centrifugation for 5 min at maximum speed. The supernatant was transferred to a fresh plate. Master Mix and Ladder were prepared according to manufacturer’s instructions for 12–230 kDa Wes Separation Module, 8 × 25 capillary cartridges, Protein Simple #SM-W004 with Anti-Rabbit Detection Module for Wes, Peggy Sue or Sally Sue, Protein Simple #DM-001. 4.8 µl lysate were mixed with 1.2 µl Master Mix to achieve a protein concentration of ~0.5 µg/µl. Antibodies were diluted in Antibody Diluent II (SMARCA2 Sigma #HPA029981 RRID:AB_10602406 1:25–100, SMARCA4 Cell Signalling #49360 clone D1Q7F RRID:AB_2728743 1:15–120 or Abcam #ab110641 clone EPNCIR111A RRID:AB_10861578 1:60, GAPDH Abcam #ab9485 RRID:AB_307275 1:250). Wes plates were prepared and run according to manufacturer’s instructions. Proteins were quantified with accompanying Compass Software. SMARCA2/4 protein levels were normalised to GAPDH. […] Where applicable, curves were fitted using a 4-parametric logistic model.

[7] = TR-FRET competition for SMARCA4BD, without VCB, mean ± SD, read-out: TR-FRET SMARCA4BD EC50
[8] = binary, PROTAC alone, individual replicates, read-out: SMARCA4 BD EC50
[9] = PROTAC + VCB, read-out: Ternary PBRM1 BD EC50 (PROTAC + VCB)
[10] = binary, PROTAC alone, read-out: PBRM1 EC50
[11] = PROTAC + VCB, individual replicates, read-out: Ternary SMARCA2 BD EC50 (PROTAC + VCB)
[12] = TR-FRET competition for SMARCA2BD, + VCB, mean ± SD, read-out: TR-FRET Ternary SMARCA2BD EC50 (PROTAC + VCB)
[13] = TR-FRET competition for SMARCA2BD, without VCB, mean ± SD, read-out: TR-FRET SMARCA2BD EC50
[14] = binary, PROTAC alone, individual replicates, read-out: SMARCA2 BD EC50

SMILES	EC50 [1, 7] [nM]	EC50 [1, 8]	EC50 [2, 9]	EC50 [2, 10]	EC50 [3, 11]	EC50 [3, 12] [nM]	EC50 [4, 13] [nM]	EC50 [4, 14]	EC50 ([5]; NCI-H1568 ([…]), mean ± SD) [nM]	IC50 ([5]; NCI-H1568, (18h))	DC50 ([6]; RKO (4 h)) [nM]	DC50 ([6]; RKO (18 h)) [nM]	EC50 ([2]; PBRM1 EC50, binary, PROTAC alone)	EC50 ([2]; Ternary PBRM1 BD EC50 (PROTAC + VCB), PROTAC + VCB)	EC50 ([5]; Homo sapiens, NCI-H1568, […]) [nM]	Dmax ([6]; RKO (18 h)) [%]	Dmax ([6]; RKO (4 h)) [%]	IC50 ([5]; Homo sapiens, NCI-H1568, 18 h) [nM]
Cc1ncsc1-c1ccc(CNC(=O)[C@@H]2C[C@H](O)CN2C(=O)[C@@H](NC(=O)C2(F)CC2)C(C)(C)C)c(OCCN2CCC(c3ccc4c(c3)n(C3CCCC3)c3nc(=O)c5c(Br)cccc5n43)CC2)c1 [compound 19]	158 ± 27	194 nM and 151 nM and 129 nM	38.5 nM and 41 nM and 40.2 nM	35.2 nM and 39.5 nM and 40.1 nM	69.1 nM and 75.9 nM and 70.4 nM	72 ± 3	85 ± 7	79.1 nM and 82 nM and 94.2 nM	564 ± 384	595 nM and 1050 nM and 287 nM	> 25000	> 25000						
Cc1ncsc1-c1ccc([C@H](CC[C@H](C)CCN2CCC(c3ccc4c(c3)n(C3CCCC3)c3nc(=O)c5c(Br)cccc5n43)CC2)NC(=O)[C@@H]2C[C@H](O)CN2C(=O)[C@@H](NC(=O)C2(F)CC2)C(C)(C)C)cc1 [compound 12]	347 ± 41	> 400 nM and 339 nM and 302 nM			148 nM and 161 nM and 256 nM and 158 nM	181 ± 44	203 ± 65	125 nM and 272 nM and 263 nM and 154 nM		411 nM and 372 nM and 85.9 nM	> 25000	5830	67.7 nM and 82.1 nM and 74.9 nM	67.9 nM and 85.8 nM and 79.7 nM	236 ± 175	94 ± 7		
Cc1ncsc1-c1ccc([C@H](COCCN2CCC(c3ccc4c(c3)n(C3CCCC3)c3nc(=O)c5c(Br)cccc5n43)CC2)NC(=O)[C@@H]2C[C@@H](O)CN2C(=O)[C@@H](NC(=O)C2(N(C)C)CC2)C(C)(C)C)cc1 [compound 26]	149 ± 41	136 nM and 180 nM and 162 nM and 117 nM and 111 nM and 126 nM and 154 nM and 147 nM and 247 nM	4.07 nM and 5.33 nM and 4.96 nM and 5.58 nM and 10.7 nM and 6.01 nM and 6.73 nM and 6.09 nM	22.2 nM and 18.2 nM and 23.4 nM and 24.5 nM and 15.7 nM and 23.5 nM and 21.5 nM and 14.9 nM and 30.3 nM and 26.7 nM	13.6 nM and 14.3 nM and 15.5 nM and 15.9 nM and 16.4 nM and 11.2 nM and 10.2 nM and 21.5 nM and 22 nM and 6 nM and 9.26 nM	13 ± 5	71 ± 15	87 nM and 79.2 nM and 87.9 nM and 88.7 nM and 86.5 nM and 48.4 nM and 75.1 nM and 59.9 nM and 56.1 nM (2×) and 67.5 nM		52.4 nM and 57.1 nM and 12.2 nM	81 ± 14	83 ± 21			33 ± 25	82 ± 5	61 ± 15	
Nc1cccc2c1c(=O)nc1n(C3CCCC3)c3ccccc3n21 [compound 2]	2400	2340 nM and 2880 nM and 2050 nM	934 nM and 1020 nM and 925 nM	1080 nM and 1000 nM and 929 nM	1910 nM and 2000 nM and 1540 nM and 2490 nM	1950	1770	1620 nM and 1970 nM and 1530 nM and 2040 nM			> 25000	> 25000			> 10000			> 10000
CN1CCN(c2nc(=O)c3c(F)cccc3o2)CC1 [compound 17]		> 10000 nM	> 10000 nM	> 10000 nM	> 10000 nM			> 10000 nM	> 10000	> 10000 nM	> 25000	> 25000						
Cc1ncsc1-c1ccc(CNC(=O)[C@@H]2C[C@@H](O)CN2C(=O)[C@@H](NC(=O)C2(F)CC2)C(C)(C)C)c(OCCN2CCC(c3ccc4c(c3)n(C3CCCC3)c3nc(=O)c5c(Br)cccc5n43)CC2)c1 [compound 20]	120 ± 17	101 nM and 114 nM and 130 nM and 140 nM	30.2 nM and 37.8 nM and 37.5 nM	35.1 nM and 43.6 nM and 36.5 nM and 35.9 nM	140 nM and 137 nM and 122 nM and 109 nM and 217 nM	141 ± 42	78 ± 20	95.1 nM and 98.5 nM and 63.7 nM and 90.1 nM and 54.6 nM	74 ± 52	80.9 nM and 35.3 nM and 140 nM	> 25000	> 25000						
